Assay results published in BindingDB's records for doi:10.1016/j.bmcl.2004.01.094 (Arqule, 2004).

Tests used:
[1] = target: Methionyl-tRNA synthetase (Enterococcus faecalis); assay: Inhibition of Enterococci faecalis methionyl-tRNA synthetase (EfMetRS)
[2] = target: Methionyl-tRNA synthetase (Staphylococcus aureus); assay: Inhibition of Staphylococcus aureus methionyl-tRNA synthetase (SaMetRS)
[3] = target: Methionyl-tRNA synthetase (Staphylococcus aureus); assay: as above; remark: listed apart in the source

| IC50 [1] | IC50 [2] | IC50 [3] | SMILES |
| --- | --- | --- | --- |
| 14 µM | 0.68 µM |  | NC(=O)[C@H](Cc1ccc(O)cc1)NC(=O)[C@@H]1CCCN1/C=C1\N=C(c2ccc(Cl)cc2Cl)OC1=O [(S)-1-[2-(2,4-Dichloro-phenyl)-5-oxo-oxazol-(4Z)-ylidenemethyl]-pyrrolidine-2-carboxylic acid [(S)-1-carbamoyl-2-(4-hydroxy-phenyl)-ethyl]-amide] |
| 1.4 µM | 0.51 µM |  | NC(=O)[C@H](Cc1ccc(O)cc1)NC(=O)[C@@H]1CCN1/C=C1\N=C(c2ccc(Br)cc2)OC1=O [(S)-1-[2-(4-Bromo-phenyl)-5-oxo-oxazol-(4Z)-ylidenemethyl]-azetidine-2-carboxylic acid [(S)-1-carbamoyl-2-(4-hydroxy-phenyl)-ethyl]-amide] |
| 48 µM |  | 1.1 µM | NC(=O)[C@H](Cc1ccc(O)cc1)NC(=O)[C@@H]1CCCN1/C=C1\N=C(c2ccc(Br)cc2)OC1=O [(S)-1-[2-(4-Bromo-phenyl)-5-oxo-oxazol-(4Z)-ylidenemethyl]-pyrrolidine-2-carboxylic acid [(S)-1-carbamoyl-2-(4-hydroxy-phenyl)-ethyl]-amide] |
|  | 0.087 µM |  | CCC/C(=C1/N=C(c2ccc(Br)cc2)OC1=O)N1CC[C@H]1C(=O)N[C@@H](Cc1ccc(O)cc1)C(N)=O [(S)-1-{1-[2-(4-Bromo-phenyl)-5-oxo-oxazol-(4Z)-ylidene]-butyl}-azetidine-2-carboxylic acid [(S)-1-carbamoyl-2-(4-hydroxy-phenyl)-ethyl]-amide] |
| 3.11 µM |  | 0.76 µM | CCC/C(=C1/N=C(c2ccc(Br)cc2)OC1=O)N1CCC[C@H]1C(=O)N[C@@H](Cc1ccc(O)cc1)C(N)=O [(S)-1-{1-[2-(4-Bromo-phenyl)-5-oxo-oxazol-(4Z)-ylidene]-butyl}-pyrrolidine-2-carboxylic acid [(S)-1-carbamoyl-2-(4-hydroxy-phenyl)-ethyl]-amide] |
| 5.93 µM | 0.85 µM |  | CC/C(=C1/N=C(c2ccc(Br)cc2)OC1=O)N1CCC[C@H]1C(=O)N[C@@H](Cc1ccc(O)cc1)C(N)=O [(S)-1-{1-[2-(4-Bromo-phenyl)-5-oxo-oxazol-(4Z)-ylidene]-propyl}-pyrrolidine-2-carboxylic acid [(S)-1-carbamoyl-2-(4-hydroxy-phenyl)-ethyl]-amide] |
